# Source: patent US9433687B2, “Anti-Notch3 antibodies and antibody-drug conjugates” (Pfizer Inc., priority 2012, dated 2016)
# B1: ch75-MalPeg6C2-8261 (conjugate)
# VH: QVKLLQSGAALVKPGASVKMSCKASGYAFTDYWVTWVKQSHGKSLEWIGEISPNSGGTNFNEKFKGKATLTVDKSTSTAYMELSRLTSEDSAIYYCTRGEIRYNWFAYWGQGTLVTVSS
# VL: DIQMTQSPSSLSASVGDRVTITCKASQNVGNNIAWYQQKPGKAPKLLIYYASNRYTGVPSRFSGSGYGTDFTLTISSLQPEDFATYYCQRLYNSPFTFGGGTKVEIK
# B2: ch75-me0131 (conjugate)
# VH: B1 VH
# VL: B1 VL
# B3: ch75-mc3377 (conjugate)
# VH: B1 VH
# VL: B1 VL
# B4: ch28-mc0131 (conjugate)
# VH: EVQLVESGGGLVQPGRSLTLSCVASGFTFRDYGMTWIRQAPGKGLTWVAYISSGSNYIYYAEAVKGRFTISRDNAKNTLYLQMTSLRSEDTALYFCTRRGPFVLDAWGQGASVTVSS
# VL: DIQMTQSPSFLSASVGDRVTINCKASQSINRYLHWFQQKLGEAPKLLIYNANGLQTGIPSRFSGSGSGTDFTLTISSLQSEDVATYFCLQHNTWPDTFGAGTKLELK
# B5: ch28-mc8261 (conjugate)
# VH: B4 VH
# VL: B4 VL
# B6: ch28-MalPeg6C2-0131 (conjugate)
# VH: B4 VH
# VL: B4 VL
# B7: ch28-me0131 (conjugate)
# VH: B4 VH
# VL: B4 VL
# B8: ch28-MalPeg6C2-8261 (conjugate)
# VH: B4 VH
# VL: B4 VL
# B9: ch28-mc3377 (conjugate)
# VH: B4 VH
# VL: B4 VL
# B10: ch28-vc6780 (conjugate)
# VH: B4 VH
# VL: B4 VL
# How the values were obtained:
# [1] = test system: 37622A1 NSCLC patient-derived xenografts; assay: 37622A1 patient derived NSCLC xenograft model; type: in vivo, mouse; settings: 5 mg/kg Q4dx4
# Description: The effects of anti-Notch3 ADCs were examined in immunodeficient mice on the in vivo growth of human tumor xenografts that were established from fragments of freshly resected 37622A1 NSCLC tumors obtained in accordance with appropriate consent procedures (Asterand). The 37622A1 NSCLC patient-derived xenografts were subcutaneously passaged in vivo as fragments from animal to animal in nude (Nu/Nu) female mice. When the tumors reached a volume of 150 to 300 mm^3, they were staged to ensure uniformity of the tumor size among various treatment groups. The 37622A1 NSCLC patient-derived xenografts model was dosed intravenously four times every four days (Q4d×4) with PBS vehicle, humanized anti-Notch3 ADCs, control huNeg-8.8 ADCs and cisplatin at the doses provided in Table 19.
# N87 gastric xenografts = assay: N87 gastric xenograft model; type: in vivo, mouse; settings: for tumor volume: dose 5 mg/kg intravenously Q4d×4
# Description: Similar in vivo experiments were performed with the N87 gastric cancer cell line as described above. To generate xenografts, nude (Nu/Nu) female mice were implanted subcutaneously with 8×10^6 N87 cells in 50% Matrigel (BD Biosciences).
# The N87 gastric model was also dosed intravenously Q4d×4 with PBS vehicle, rat-human chimeric anti-Notch3 ADCs and control huNeg-8.8 ADCs, at a dose of 5 mg/kg as provided in FIG. 16D.
# The N87 gastric model was also dosed intravenously Q4d×4 with PBS vehicle and rat-human chimeric anti-Notch3 ADCs ch28-mc0131, ch75-mc0131, ch28-m(H2O)c-0131 and ch75-m(H2O)c-0131 at a dose of 5 mg/kg as provided in FIG. 16E.
# [2] = test system: OVCAR3 ovarian xenografts; assay: OVCAR3 ovarian xenograft model; settings: dose 20 mg/kg intraperitoneally Q7d×8
# [3] = test system: MDA-MB-468 (breast cancer); assay: In vitro cytotoxicity (MTS), MDA-MB-468; type: cell-based, human; settings: Table 13; four days; LP = lacked potency
# Description: (§1) The effects of anti-Notch3 ADCs were assessed on 1) cell lines endogenously expressing Notch3 protein: HCC2429 (lung cancer), OVCAR3 (ovarian cancer) and MDA-MB-468 (breast cancer), 2) cell lines engineered to over-express full length human Notch3 protein: MDA-MB-468/hNotch3 and U2OS/hNotch3, and 3) a negative control cell line (SW900) using an MTS cellular viability indicator (Promega, Madison, Wis.). These cell lines were cultured with increasing concentrations of anti-Notch3 ADCs comprising rat-human chimeric anti-Notch3 antibodies, ch28 and ch75, and humanized anti-Notch3 antibodies, hu28 and hu75, conjugated to various linker-payload combinations of the present invention. As a specificity control for the anti-Notch3-ADCs, non-targeted control-ADCs (huNeg8.8-ADCs or ch2H6-ADCs) were also tested on the same cell lines. After four days, viability of each culture was assessed. IC50 values were calculated by logistic non-linear regression, model #203 with XL fit v4.2 (IDBS, Guildford, Surry, UK) and presented as ng Ab/mL. The drug antibody ratio (DAR) is also provided.
# HCC2429 (lung cancer) = assay: In vitro cytotoxicity (MTS), HCC2429; type: cell-based, human; settings: Table 13; four days; LP = lacked potency
# Description: as §1
# (§2) This process generated the anti-Notch3 cysteine mutant ADCs: hu28-(L443C)-vc0101 and hu28-(L443C/κK183C)-vc0101. The activity of the anti-Notch3 cysteine mutant ADCs were assessed on cell lines endogenously expressing Notch3 protein: HCC2429 (lung cancer) and OVCAR3 (ovarian cancer) using an MTS cellular viability indicator as described in previous Examples.
# OVCAR3 (ovarian cancer) = assay: In vitro cytotoxicity (MTS), OVCAR3; type: cell-based, human; settings: Table 13; four days; LP = lacked potency
# Description: as §1, §2
molecule,measurement,setting,value
"N.N.[Cl][Pt][Cl] [Cisplatin, reference compound]",tumor volume,[1]; Day 4,226 mm^3
same,tumor volume,[1]; Day 7,280 mm^3
same,tumor volume,[1]; Day 11,301 mm^3
same,tumor volume,[1]; Day 14,345 mm^3
same,tumor volume,[1]; Day 18,309 mm^3
same,tumor volume,[1]; Day 21,373 mm^3
same,tumor volume,[1]; Day 25,401 mm^3
same,tumor volume,[1]; Day 28,446 mm^3
same,tumor volume,[1]; Day 32,482 mm^3
same,tumor volume,[1]; Day 35,587 mm^3
same,tumor volume,[1]; Day 39,591 mm^3
same,tumor volume,[1]; Day 42,612 mm^3
same,tumor volume,[1]; Day 46,723 mm^3
same,tumor volume,[1]; Day 49,853 mm^3
same,tumor volume,[1]; Day 53,970 mm^3
same,tumor volume,[1]; Day 56,1215 mm^3
same,tumor volume,[1]; Day 60,1428 mm^3
same,tumor volume,[1]; Day -1,185 mm^3
same,tumor volume,N87 gastric xenografts; DAY 0,328 mm^3
same,tumor volume,N87 gastric xenografts; DAY 4,414 mm^3
same,tumor volume,N87 gastric xenografts; DAY 7,520 mm^3
same,tumor volume,N87 gastric xenografts; DAY 11,501 mm^3
same,tumor volume,N87 gastric xenografts; DAY 14,637 mm^3
"N.N.O=C([O-])C1(C(=O)[O-])CCC1.[Pt+2] [carboplatin, reference compound]",tumor volume,[2]; DAY 0,167 mm3
same,tumor volume,[2]; DAY 3,242 mm3
same,tumor volume,[2]; DAY 6,246 mm3
same,tumor volume,[2]; DAY 11,311 mm3
same,tumor volume,[2]; DAY 14,426 mm3
same,tumor volume,[2]; DAY 18,473 mm3
same,tumor volume,[2]; DAY 21,475 mm3
same,tumor volume,[2]; DAY 25,552 mm3
same,tumor volume,[2]; DAY 28,640 mm3
same,tumor volume,[2]; DAY 31,692 mm3
same,tumor volume,[2]; DAY 34,811 mm3
same,tumor volume,[2]; DAY 38,869 mm3
same,tumor volume,[2]; DAY 41,906 mm3
same,tumor volume,[2]; DAY 45,1009 mm3
same,tumor volume,[2]; DAY 49,1149 mm3
same,tumor volume,[2]; DAY 53,1290 mm3
same,tumor volume,[2]; DAY 56,1370 mm3
same,tumor volume,[2]; DAY 59,1514 mm3
same,tumor volume,[2]; DAY 63,1783 mm3
same,tumor volume,[2]; DAY 67,1844 mm3
B1,"IC50 (ng Ab/mL) ± S.E.M., MDA-MB-468",[3],4255 ± 2375^ ng Ab/mL
B2,"IC50 (ng Ab/mL) ± S.E.M., MDA-MB-468",[3],259 ng Ab/mL
B3,"IC50 (ng Ab/mL) ± S.E.M., MDA-MB-468",[3],560 ng Ab/mL
B4,"IC50 (ng Ab/mL) ± S.E.M., HCC2429",HCC2429 (lung cancer),251 ± 77.5 ng Ab/mL
same,"IC50 (ng Ab/mL) ± S.E.M., OVCAR3",OVCAR3 (ovarian cancer),6 ± 1.0 ng Ab/mL
same,"IC50 (ng Ab/mL) ± S.E.M., MDA-MB-468",[3],35 ± 18.5 ng Ab/mL
same,growth of N87 gastric xenografts,"N87 gastric xenografts; 5 mg/kg iv Q4dx4, FIG. 16D, 16E",inhibited growth of N87 gastric xenografts
B5,"IC50 (ng Ab/mL) ± S.E.M., MDA-MB-468",[3],12147 ± 4806.4 ng Ab/mL
B6,"IC50 (ng Ab/mL) ± S.E.M., OVCAR3",OVCAR3 (ovarian cancer),10 ± 2.0 ng Ab/mL
same,"IC50 (ng Ab/mL) ± S.E.M., MDA-MB-468",[3],10 ± 1.0 ng Ab/mL
B7,"IC50 (ng Ab/mL) ± S.E.M., HCC2429",HCC2429 (lung cancer),30 ng Ab/mL
same,"IC50 (ng Ab/mL) ± S.E.M., OVCAR3",OVCAR3 (ovarian cancer),8 ± 2.0 ng Ab/mL
same,"IC50 (ng Ab/mL) ± S.E.M., MDA-MB-468",[3],24 ± 14.0 ng Ab/mL
B8,"IC50 (ng Ab/mL) ± S.E.M., MDA-MB-468",[3],83 ± 35.5 ng Ab/mL
B9,"IC50 (ng Ab/mL) ± S.E.M., OVCAR3",OVCAR3 (ovarian cancer),14 ± 5.5 ng Ab/mL
same,"IC50 (ng Ab/mL) ± S.E.M., MDA-MB-468",[3],27 ± 11.3 ng Ab/mL
B10,"IC50 (ng Ab/mL) ± S.E.M., HCC2429",HCC2429 (lung cancer),324 ± 78.9 ng Ab/mL
same,"IC50 (ng Ab/mL) ± S.E.M., OVCAR3",OVCAR3 (ovarian cancer),90 ± 48.5 ng Ab/mL
same,"IC50 (ng Ab/mL) ± S.E.M., MDA-MB-468",[3],4407 ± 2128.2 ng Ab/mL
